Experiments:
broccoli = assay: Soil drench growth enhancing effect, broccoli; format: in vivo; details: for Average Dry Matter Weight / Average Root Length / Average Shoot Height: 4 treatments every 14 days, 14 days after final treatment
Protocol: (§1) Boron-containing compounds/compositions were applied directly to the soil, and the growth of plants was measured. An exemplary embodiment of a benzoxaborole compound includes 5-chlorobenzo[c][1,2]oxaborol-1(3H)-ol, which may be referred to herein as BAG8.
(§2) Eight 2-gallon pots were filled with steamed soil for each of the five treatments listed below:
(§3) 3-4 seeds were planted into each pot at a depth of 1 inch and covered. All seedlings were subjected to 16 hours of daylight at ˜800 μmol/m^2/second (light intensity) provided by cool-white fluorescent lamps. Daytime temperatures were ˜25° C. and were dropped to ˜18° C. at night.
(§4) Solutions were prepared by first dissolving the appropriate amount of benzoxaborole in ethanol or acetone then adding to distilled water. 100 mL of treatment was applied to each pot in a circular motion to evenly coat the surface of the soil. These treatments were applied every 14 days for a total of 4 treatments, including the at-planting treatment. Each pot was monitored, and 50 mL of distilled water was added to each pot when soil was dry.
(§5) Germination and shoot height data were recorded every seven days. 14 days after the final treatment application, plants were carefully removed from each pot and final shoot length, root length, and dry matter weight were recorded.
(§6) This experiment was conducted on red table beet, broccoli, snow pea, turnips, and spring wheat.

red table beet = assay: Soil drench growth enhancing effect, red table beet; format: in vivo; details: for Average Dry Matter Weight / Average Root Length / Average Shoot Height: 4 treatments every 14 days, 14 days after final treatment
Protocol: as §1, §2, §3, §4, §5, §6

maize seeds = assay: Seed treatment growth effect on maize (germination trays); format: in vivo; details: for Mean Root Length / Mean Stem Length: suspension concentrate, 10 days
Protocol: A sample suspension concentrate was prepared by mixing 0.8 g of Atlas G-5002L, 0.8 g ATLOX 4913, 5 g of glycerin, 50 mg of anti-foam compound, 0.178 g of xanthan gum, 89 mg of anti-microbial, 53.08 g of water, and 40 g of BAG8. […] […] The container was then shaken to evenly coat the seeds and allowed to dry overnight. Once dry, 50 seeds from each rate and 50 untreated seeds were placed in separate seed germination trays with moist paper towel. 10 days later, root and stem lengths from each seed were taken. Analysis of variance was used to examine root and stem length data and means were separated using Fisher's least significant difference at α=0.05.

[1] = system: Southern Rust of Maize (Puccinia polysora); assay: Field trial, Southern Rust of Maize severity on maize; format: in vivo
Protocol: In this example, diseased maize having Southern Rust of Maize (Puccinia polysora) was treated with BAG8, Azoxystrobin, and Boscalid. Testing was performed to assess the fungicidal effect of the compounds on Southern Rust of Maize (Puccinia polysora) and to assess the growth enhancing effect of the compounds on the diseased maize.
Maize was planted into 6×30 ft plots and replicated four times in a randomized complete block design. Three treatments and an untreated control were tested for efficacy against Southern Rust of Maize (Puccinia polysora) and assessed for yield at the conclusion of the growing season. Foliar applications of the three treatments, BAG8 at 0.25 pounds of active ingredient per acre, azoxystrobin at 0.25 pounds of active ingredient per acre, and boscalid at 0.24 pounds of active ingredient per acre, were applied to the plots at growth stage V8. Best practices were used consistently across the test plots with regard to field conditions such as fertilization, insect control, weed control, and irrigation. Disease assessments were taken in each plot 28 days after the foliar fungicide application. At maturity, each plot was harvested using standard harvesting equipment. After shelling, the kernels were weighed at 11% moisture and yield calculations extrapolated to bushels per acre.
(§7) Analysis of variance (ANOVA) was used to examine disease severity data and means were separated using Fisher's least significant difference (LSD) method at α=0.05. […]

[2] = system: Asian Soybean Rust (Phakopsora pachyrhizi); assay: Field trial, Asian Soybean Rust severity on soybean; format: in vivo
Protocol: (§8) In this example, diseased soybeans having Asian Soybean Rust (Phakopsora pachyrhizi) were treated with BAG8 and Azoxystrobin. Testing was performed to assess the fungicidal effect of the compounds on Asian Soybean Rust and to assess the growth enhancing effects of the compounds on the diseased soybeans.
(§9) Soybeans were planted into 6×30 ft plots and replicated four times in a randomized complete block design. Two treatments and an untreated control were tested for efficacy against Asian Soybean Rust (Phakopsora pachyrhizi) and assessed for yield at the conclusion of the growing season. Foliar applications of the two treatments, BAG8 at 0.25 pounds of active ingredient per acre and azoxystrobin at 0.25 pounds of active ingredient per acre, were applied to the plots at two separate times: growth stage R1 (flowering) and growth stage R3 (bean pod formation). Best practices were used consistently across the test plots with regard to field conditions such as fertilization, insect control, weed control, and irrigation. Disease assessments were taken in each plot 28 days after the final foliar fungicide application. At maturity, each plot was harvested using standard harvesting equipment. After shelling, the beans were weighed at 13% moisture and yield calculations extrapolated to bushels per acre.
as §7

diseased soybeans = assay: Field trial, yield of diseased soybeans; format: in vivo, soybean
Protocol: as §8, §9, §7

spring wheat = assay: Soil drench growth enhancing effect, spring wheat; format: in vivo; details: for Average Dry Matter Weight / Average Root Length / Average Shoot Height: 4 treatments every 14 days, 14 days after final treatment
Protocol: as §1, §2, §3, §4, §5, §6

[3] = all rates (0.12-0.60 lb/A), soil drench
[4] = treatment B, 0.12 lb/A soil drench
[5] = treatment C, 0.25 lb/A soil drench
[6] = treatment D, 0.35 lb/A soil drench
[7] = treatment E, 0.60 lb/A soil drench
[8] = all tested application rates, maize seed treatment

Compound: OB1OCc2cc(Cl)ccc21 [BAG8, 5-chlorobenzo[c][1,2]oxaborol-1(3H)-ol]
- root length and dry matter weight compared with untreated control (broccoli; [3]): longer roots and greater dry matter weight than the untreated control
- treatment effect on average shoot height (broccoli; all rates, soil drench): no treatment effect was present
- Average Dry Matter Weight (broccoli; [4]): 10.70 mg
- Average Root Length (broccoli; [4]): 5.60 cm
- Average Shoot Height (broccoli; [4]): 4.50 cm
- Average Dry Matter Weight (broccoli; [5]): 11.10 mg
- Average Root Length (broccoli; [5]): 5.20 cm
- Average Shoot Height (broccoli; [5]): 4.40 cm
- Average Dry Matter Weight (broccoli; [6]): 11.30 mg
- Average Root Length (broccoli; [6]): 5.30 cm
- Average Shoot Height (broccoli; [6]): 4.90 cm
- Average Dry Matter Weight (broccoli; [7]): 13.00 mg
- Average Root Length (broccoli; [7]): 6.50 cm
- Average Shoot Height (broccoli; [7]): 4.50 cm
- growth effect compared with untreated control (red table beet; all application rates (0.12-0.60 lb/A), soil drench): longer shoots, longer roots, and greater dry matter weight than the untreated control
- Average Dry Matter Weight (red table beet; [4]): 10.70 mg
- Average Root Length (red table beet; [4]): 4.50 cm
- Average Shoot Height (red table beet; [4]): 3.33 cm
- Average Dry Matter Weight (red table beet; [5]): 11.10 mg
- Average Root Length (red table beet; [5]): 5.98 cm
- Average Shoot Height (red table beet; [5]): 4.24 cm
- Average Dry Matter Weight (red table beet; [6]): 11.30 mg
- Average Root Length (red table beet; [6]): 5.56 cm
- Average Shoot Height (red table beet; [6]): 4.09 cm
- Average Dry Matter Weight (red table beet; [7]): 13.00 mg
- Average Root Length (red table beet; [7]): 5.15 cm
- Average Shoot Height (red table beet; [7]): 5.01 cm
- increased root length relative to untreated control (maize seeds; [8]): 49-70%
- increased stem length relative to untreated control (maize seeds; [8]): 54-75%
- Mean Root Length (maize seeds; seed treatment 0.25 lb ai/A): 122.0 mm
- Mean Stem Length (maize seeds; seed treatment 0.25 lb ai/A): 141.0 mm
- Mean Root Length (maize seeds; seed treatment 0.50 lb ai/A): 110.2 mm
- Mean Stem Length (maize seeds; seed treatment 0.50 lb ai/A): 124.5 mm
- Mean Root Length (maize seeds; seed treatment 0.75 lb ai/A): 125.1 mm
- Mean Stem Length (maize seeds; seed treatment 0.75 lb ai/A): 136.5 mm
- reduced disease relative to the untreated control ([1]; 0.25 lb ai/A foliar): 70%
- Disease Severity (% Leaf Coverage) ([1]; 0.25 lb ai/A foliar at V8, 28 days after application): 19.6 b % Leaf Coverage
- reduced disease in comparison to untreated control ([2]; 0.25 lb ai/A foliar): 47%
- Disease Severity (% Leaf Coverage) ([2]; 0.25 lb ai/A foliar at R1 and R3, 28 days after final application): 48.2 c % Leaf Coverage
- increased soybean yield (diseased soybeans; 0.25 lb ai/A foliar): 281%
- Yield (diseased soybeans; 0.25 lb ai/A foliar at R1 and R3, harvest at maturity, 13% moisture): 55.6 a bu/A
- growth effect compared with untreated control (spring wheat; [3]): longer shoots, longer roots, and greater dry matter weight than the untreated control
- increase in final dry matter weight of wheat (spring wheat; applied at 0.12 and 0.25 pounds per acre, soil drench): ~250%
- Average Dry Matter Weight (spring wheat; [4]): 1204.30 mg
- Average Root Length (spring wheat; [4]): 21.30 cm
- Average Shoot Height (spring wheat; [4]): 39.50 cm
- Average Dry Matter Weight (spring wheat; [5]): 1123.60 mg
- Average Root Length (spring wheat; [5]): 24.40 cm
- Average Shoot Height (spring wheat; [5]): 39.70 cm
- Average Dry Matter Weight (spring wheat; [6]): 640.20 mg
- Average Root Length (spring wheat; [6]): 20.40 cm
- Average Shoot Height (spring wheat; [6]): 37.50 cm
- Average Dry Matter Weight (spring wheat; [7]): 649.70 mg
- Average Root Length (spring wheat; [7]): 22.00 cm
- Average Shoot Height (spring wheat; [7]): 39.90 cm

Source: US20210030005A1, “BENZOXABOROLE COMPOSITIONS HAVING A GROWTH ENHANCING EFFECT” (BORAGEN, INC., priority 2018, published 2021)
